Drawing on US20230081390A1, “INHIBITORS OF RAF KINASES” (Kinnate Biopharma Inc., priority 2019, published 2023), this text covers IC50 for 30 compounds.

The structures appear in SMILES notation. pIC50: −log10 of the molar value.

Sequence of human RAF1 (P04049 whole entry): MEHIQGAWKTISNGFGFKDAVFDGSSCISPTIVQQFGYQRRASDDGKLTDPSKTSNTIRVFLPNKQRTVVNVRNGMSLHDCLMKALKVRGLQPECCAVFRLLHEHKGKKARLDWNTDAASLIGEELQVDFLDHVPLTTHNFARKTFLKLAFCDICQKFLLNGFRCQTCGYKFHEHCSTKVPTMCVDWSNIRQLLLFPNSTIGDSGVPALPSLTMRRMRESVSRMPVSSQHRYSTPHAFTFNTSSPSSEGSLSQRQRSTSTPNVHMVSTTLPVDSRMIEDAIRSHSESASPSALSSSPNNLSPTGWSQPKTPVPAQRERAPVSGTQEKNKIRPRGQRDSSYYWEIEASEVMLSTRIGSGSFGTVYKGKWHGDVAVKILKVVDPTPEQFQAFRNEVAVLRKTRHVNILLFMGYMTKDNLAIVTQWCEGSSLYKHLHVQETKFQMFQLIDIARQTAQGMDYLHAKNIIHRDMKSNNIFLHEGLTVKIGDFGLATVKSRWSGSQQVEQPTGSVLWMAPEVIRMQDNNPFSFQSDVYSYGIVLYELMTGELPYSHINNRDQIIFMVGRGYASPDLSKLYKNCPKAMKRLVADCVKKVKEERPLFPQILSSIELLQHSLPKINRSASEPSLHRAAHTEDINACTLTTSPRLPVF

The target in this experiment is human RAF1 (Homo sapiens, UniProt P04049). In words: Protein kinase assay (33P-ATP filter binding), human RAF1, 10-dose IC50. The following applies: MEK1 (K97R) substrate 3 micromolar, ATP 10 micromolar, read-out: RAF-1 IC50. Type of experiment: biochemical. Put shortly:
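Radiometric filter-binding format: 10 µM ATP, 3 µM MEK1 (K97R) as substrate for human RAF1, 2 hr at room temperature in 20 mM HEPES pH 7.5 with 10 mM MgCl2. Compounds were dispensed acoustically from DMSO. IC50 came from percent kinase activity relative to vehicle over a 10-dose series.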
By pIC50 is commonly meant the negative decadic logarithm of the IC50, by convention in mol/L. Take `Cc1cc(F)c(NC(=O)N2CCCC3C2C3C(F)(F)F)cc1-c1cc(OCCO)nc(N2CCOCC2)c1` (single isomer, unassigned) [Example 108, N-[2-fluoro-5-[2-(2-hydroxyethoxy)-6-(morpholin-4-yl)pyridin-4-yl]-4-methylphenyl]-7-(trifluoromethyl)-2-azabicyclo[4.1.0]heptane-2-carboxamide]: the pIC50 was 5.00 to 6.00.
For `Cc1ccc(NC(=O)N2CC[C@@H](OC(F)(F)F)C2)cc1-c1cnc(OC2CCOCC2)c(N2CCOCC2)c1` [Example 128, (3R)-N-[4-methyl-3-[5-(morpholin-4-yl)-6-(oxan-4-yloxy)pyridin-3-yl]phenyl]-3-(trifluoromethoxy)pyrrolidine-1-carboxamide], the pIC50 was > 8.00.
Under `Cc1ccc(NC(=O)N2CC[C@H](OC(F)(F)F)C2)cc1-c1cc(OC(C)(C)CO)nc(N2CCOCC2)c1` [Example 170, (3S)-N-(3-[2-[(1-hydroxy-2-methylpropan-2-yl)oxy]-6-(morpholin-4-yl)pyridin-4-yl]-4-methylphenyl)-3-(trifluoromethoxy)pyrrolidine-1-carboxamide] stands > 8.00; under `Cc1cc(F)c(NC(=O)N2CC(C)C(C(F)(F)F)C2)cc1-c1cc(OCCO)nc(N2CCOCC2)c1` (single isomer, unassigned) [Example 52, N-[2-fluoro-5-[2-(2-hydroxyethoxy)-6-(morpholin-4-yl)pyridin-4-yl]-4-methylphenyl]-3-methyl-4-(trifluoromethyl)pyrrolidine-1-carboxamide], > 8.00.
Under `Cc1cc(F)c(NC(=O)N2CC[C@H](C(C)(F)F)C2)cc1-c1cc(OCCO)nc(N2CCOCC2)c1` (single isomer, unassigned) [Example 33] stands > 8.00; under `Cc1ccc(NC(=O)N2CC[C@@H](CC(F)(F)F)C2)cc1-c1cc(OC2CCC(C)(O)CC2)nc(N2CCOCC2)c1` (stereo partly drawn) [Example 212, (3S)-N-(3-[2-[(4-hydroxy-4-methylcyclohexyl)oxy]-6-(morpholin-4-yl)pyridin-4-yl]-4-methylphenyl)-3-(2,2,2-trifluoroethyl)pyrrolidine-1-carboxamide (trans)], > 8.00; under `Cc1ccc(NC(=O)N2CCC(CC(F)(F)F)C2)cc1-c1cc(OCC(C)(C)CO)nc(N2CCOCC2)c1` (stereo not drawn) [Example 196, N-(3-(2-(3-hydroxy-2,2-dimethylpropoxy)-6-morpholinopyridin-4-yl)-4-methylphenyl)-3-(2,2,2-trifluoroethyl)pyrrolidine-1-carboxamide], > 8.00.
As for `Cc1cc(F)c(NC(=O)N2CCCC3C2C3C(F)(F)F)cc1-c1cc(OCCO)nc(N2CCOCC2)c1` (single isomer, unassigned) [Example 110, N-[2-fluoro-5-[2-(2-hydroxyethoxy)-6-(morpholin-4-yl)pyridin-4-yl]-4-methylphenyl]-7-(trifluoromethyl)-2-azabicyclo[4.1.0]heptane-2-carboxamide], the figure is > 8.00; as for `Cc1ccc(NC(=O)N2CCC(CC(F)(F)F)C2)cc1-c1cc(OC[C@H](O)CO)nc(N2CCOCC2)c1` (stereo partly drawn) [Example 180, N-(3-(2-((R)-2,3-dihydroxypropoxy)-6-morpholinopyridin-4-yl)-4-methylphenyl)-3-(2,2,2-trifluoroethyl)pyrrolidine-1-carboxamide], > 8.00.
As for `Cc1cc(F)c(NC(=O)N2CCC(CF)(C(F)(F)F)C2)cc1-c1cc(OCCO)nc(N2CCOCC2)c1` (stereo not drawn) [Example 45, N-[2-fluoro-5-[2-(2-hydroxyethoxy)-6-(morpholin-4-yl)pyridin-4-yl]-4-methylphenyl]-3-(fluoromethyl)-3-(trifluoromethyl)pyrrolidine-1-carboxamide], the pIC50 is > 8.00.
Take `Cc1ccc(NC(=O)N2CC[C@@H](CC(F)(F)F)C2)cc1-c1cc(OC[C@@H](C)O)nc(N2CC3(COC3)C2)c1` [Example 229, (3S)-N-(3-[2-[(2R)-2-hydroxypropoxy]-6-[2-oxa-6-azaspiro[3.3]heptan-6-yl]pyridin-4-yl]-4-methylphenyl)-3-(2,2,2-trifluoroethyl)pyrrolidine-1-carboxamide]: the pIC50 is > 8.00.
With `Cc1cc(F)c(NC(=O)N2CC[C@H](CC(F)(F)F)C2)cc1-c1cc(OC[C@@H](C)O)nc(N2CCOCC2)c1` (single isomer, unassigned) [Example 183], the pIC50 is > 8.00.
Turning to `Cc1cc(F)c(NC(=O)N2CCCCC(F)(F)C2)cc1-c1cc(OCCO)nc(N2CCOCC2)c1` [Example 46, 3,3-difluoro-N-[2-fluoro-5-[2-(2-hydroxyethoxy)-6-(morpholin-4-yl)pyridin-4-yl]-4-methylphenyl]azepane-1-carboxamide], the pIC50 is 7.00 to 8.00.
In the case of `Cc1ccc(NC(=O)N2CCC3(C2)CC(F)(F)C3)cc1-c1cc(OCCO)nc(N2CCOCC2)c1` [Example 167, 2,2-difluoro-N-(3-(2-(2-hydroxyethoxy)-6-morpholinopyridin-4-yl)-4-methylphenyl)-6-azaspiro[3.4]octane-6-carboxamide], the negative-log IC50 (pIC50) is > 8.00.
Regarding `Cc1cc(F)c(NC(=O)N2CC/C(=C\C(F)(F)F)C2)cc1-c1cc(OCCO)nc(N2CCOCC2)c1` [Example 93, (E)-N-(2-fluoro-5-(2-(2-hydroxyethoxy)-6-morpholinopyridin-4-yl)-4-methylphenyl)-3-(2,2,2-trifluoroethylidene)pyrrolidine-1-carboxamide], the pIC50 is > 8.00.
Take `Cc1ccc(NC(=O)N2CCC(=C3CC3)C2)cc1-c1cc(OCCO)nc(N2CCOCC2)c1` [Example 145, 3-cyclopropylidene-N-[3-[2-(2-hydroxyethoxy)-6-(morpholin-4-yl)pyridin-4-yl]-4-methylphenyl]pyrrolidine-1-carboxamide]: the pIC50 is > 8.00.
With `Cc1cc(F)c(NC(=O)N2CCC3(CCC3)C2)cc1-c1cc(OCCO)nc(N2CCOCC2)c1` [Example 26, N-[2-fluoro-5-[2-(2-hydroxyethoxy)-6-(morpholin-4-yl)pyridin-4-yl]-4-methylphenyl]-6-azaspiro[3.4]octane-6-carboxamide], the pIC50 is > 8.00.
As for `Cc1ccc(NC(=O)N2CC[C@H](OC(F)(F)F)C2)cc1-c1cc(OCC(C)O)nc(N2CCOCC2)c1` (stereo in doubt) [Example 152, (3S)-N-(3-[2-[(2R)-2-hydroxypropoxy]-6-(morpholin-4-yl)pyridin-4-yl]-4-methylphenyl)-3-(trifluoromethoxy)pyrrolidine-1-carboxamide], the figure is > 8.00; as for `Cc1cc(F)c(NC(=O)N2CC[C@]3(C2)CC(F)(F)C3(F)F)cc1-c1cc(OCCO)nc(N2CCOCC2)c1` (single isomer, unassigned) [Example 105], > 8.00; as for `Cc1ccc(NC(=O)N2CC[C@H](CC(F)(F)F)C2)cc1-c1cnc(OC2CCOCC2)c(N2CCOCC2)c1` (single isomer, unassigned) [Example 194], > 8.00.
As for `Cc1cc(F)c(NC(=O)N2CC[C@@H](CC(F)(F)F)C2)cc1-c1cc(OCCO)nc(N2CCOCC2)c1` (single isomer, unassigned) [Example 75], the figure is > 8.00.
As for `Cc1cc(F)c(NC(=O)N2CC3C(C2)C3(F)F)cc1-c1cc(OCCO)nc(N2CCOCC2)c1` (stereo not drawn) [Example 28, 6,6-difluoro-N-[2-fluoro-5-[2-(2-hydroxyethoxy)-6-(morpholin-4-yl)pyridin-4-yl]-4-mehtylphenyl]-3-azabicyclo[3.1.0]hexane-3-carboxamide], the figure is 7.00 to 8.00; as for `Cc1cc(F)c(NC(=O)N2CC[C@H](OC(F)(F)F)C2)cc1-c1cc(OCCO)nc(N2CCOCC2)c1` (single isomer, unassigned) [Example 78], > 8.00.
On to `Cc1ccc(NC(=O)N2C[C@@H](OC(F)(F)F)CO2)cc1-c1cc(OCCO)nc(N2CCOCC2)c1` [Example 144, (4R)-N-[3-[2-(2-hydroxyethoxy)-6-(morpholin-4-yl)pyridin-4-yl]-4-methylphenyl]-4-(trifluoromethoxy)-1,2-oxazolidine-2-carboxamide], for which the pIC50 was > 8.00.
As for `Cc1ccc(NC(=O)N2CC[C@H](C(F)(F)F)C2)cc1-c1cnc(OC2CCOCC2)c(N2CCOCC2)c1` (single isomer, unassigned) [Example 120], the pIC50 was > 8.00.
As for `Cc1ccc(NC(=O)N2CC[C@@H](CC(F)(F)F)C2)cc1-c1cc(OC2CC(C)(O)C2)nc(N2CCOCC2)c1` (stereo partly drawn) [Example 217, (3S)-N-[3-[2-(3-hydroxy-3-methylcyclobutoxy)-6-(morpholin-4-yl)pyridin-4-yl]-4-methylphenyl]-3-(2,2,2-trifluoroethyl)pyrrolidine-1-carboxamide], the figure is > 8.00; as for `Cc1cc(F)c(NC(=O)N2CCS[C@@H](C(F)(F)F)C2)cc1-c1cc(OCCO)nc(N2CCOCC2)c1` [Example 169, (R)-N-(2-fluoro-5-(2-(2-hydroxyethoxy)-6-morpholinopyridin-4-yl)-4-methylphenyl)-2-(trifluoromethyl)thiomorpholine-4-carboxamide], > 8.00.
For the compound `Cc1cc(F)c(NC(=O)N2CCC(F)(F)CC2)cc1-c1cc(OCCO)nc(N2CCOCC2)c1` [Example 20, 4,4-difluoro-N-[2-fluoro-5-[2-(2-hydroxyethoxy)-6-(morpholin-4-yl)pyridin-4-yl]-4-methylphenyl]piperidine-1-carboxamide], the pIC50 is 7.00 to 8.00.
As for `Cc1ccc(NC(=O)N2CC[C@H](OC(F)(F)F)C2)cc1-c1cnc(OC2CCOCC2)c(N2CCOCC2)c1` [Example 129, (3S)-N-[4-methyl-3-[5-(morpholin-4-yl)-6-(oxan-4-yloxy)pyridin-3-yl]phenyl]-3-(trifluoromethoxy)pyrrolidine-1-carboxamide], the figure is > 8.00.
`Cc1cc(F)c(NC(=O)N2CCC(C(O)C(F)(F)F)C2)cc1-c1cc(OCCO)nc(N2CCOCC2)c1` (stereo not drawn) [Example 76, N-[2-fluoro-5-[2-(2-hydroxyethoxy)-6-(morpholin-4-yl)pyridin-4-yl]-4-methylphenyl]-3-(2,2,2-trifluoro-1-hydroxyethyl)pyrrolidine-1-carboxamide]: the negative logarithm of the IC50 (pIC50) was > 8.00.
